Molecules are shown by their SMILES. Residues, ends and D or L forms follow the SMILES beside them.

From US8753841B2, “Enzyme that catalyzes a peptide-forming reaction from a carboxy component and an amine component, microbe producing the same, and a method of producing a dipeptide using the enzyme or microbe” (Ajinomoto Co., Inc., priority 2002, dated 2014) come the findings set out here.

For assay [1], the system named is peptide-forming enzyme from Empedobacter brevis strain FERM BP-8113. Nature of the assay: Substrate specificity of enzyme (peptide production from carboxy and amine components). It is filed as biochemical. As to conditions: L-amino acid methyl ester hydrochloride 100 mM, 150 mM L-glutamine, pH 9.0, 25° C., 3 hours. The text has this: Ester specificity was examined in the case of using L-amino acid ester for the carboxy component. […] HCl represents hydrochloride in Table 4.
Peptide production was examined in the case of using L-alanine methyl ester for the carboxy component and using various L-amino acids for the amine component.
Peptide production was examined in the case of using various types of L-amino acid methyl esters for the carboxy component and using L-glutamine for the amine component. […] Furthermore, Tween-80 was added to the reaction system to a final concentration of 0.1% in the case of using L-Trp-OMe and L-Tyr-OMe.

The subject of assay [2] is Empedobacter brevis strain FERM BP-8113 microbial cells. Nature of the assay: Production of peptide using microbial cells of Empedobacter brevis. Type of assay: cell-based. As to conditions: 1 mL 100 g/L cell suspension + 1 mL buffer with 200 mM carboxy component, 400 mM amino acid, 10 mM EDTA, pH 9.0, 18° C., 2 hours. How it is done:
A 50 mL medium (pH 6.2) containing 5 grams (g) of glucose, 5 g of ammonium sulfate, 1 g of monopotassium phosphate, 3 g of dipotassium phosphate, 0.5 g of magnesium sulfate, 10 g of yeast extract and 10 g of peptone in 1 liter (L) was transferred to a 500 mL Sakaguchi flask and sterilized at 115° C. for 15 minutes.
Microbial cells were collected by centrifuging (10,000 rounds per minute (rpm), 15 minutes) the culture broth obtained in Example 1, followed by suspending them to a concentration of 100 g/L in 100 mM borate buffer (pH 9.0) containing 10 mM EDTA. After respectively adding 1 mL of the suspension to 1 mL each of 100 mM borate buffer solutions (pH 9.0) containing 10 mM EDTA, 200 mM of the following carboxy components, and 400 mM of the following amino acids to make a final volume of 2 mL, the reaction was carried out at 18° C. for 2 hours.

Assay [3] concerns Sphingobacterium sp. strain FERM BP-8124 microbial cells. The experiment in a line: Production of L-alanyl-L-glutamine using microbial cells of Sphingobacterium sp. It is filed as cell-based. As to conditions: 0.1 mL 100 g/L cell suspension + 0.1 mL buffer with 200 mM L-alanine methyl ester hydrochloride, 400 mM L-glutamine, pH 9.0, 25° C., 120 minutes. How it is done: 22, 2002). […] 1 ml of this culture broth was then added to the aforementioned medium (50 ml/500 mL Sakaguchi flask) and cultured at 30° C. for 18 hours. Following completion of the culturing, the microbial cells were separated from the culture broth by centrifugation and suspended in 0.1 M borate buffer (pH 9.0) containing 10 mM EDTA at a concentration of 100 g/L as wet microbial cells. […] The resulting 0.2 mL of mixture was allowed to react at 25° C. for 120 minutes. The concentration of L-alanyl-L-glutamine formed at this time was 62 mM.
22, 2002). […] 1 ml of this culture broth was then added to the aforementioned medium (50 ml/500 mL Sakaguchi flask) and cultured at 30° C. for 18 hours. After completion of the culture, the microbial cells were separated from the culture broth by centrifugation and suspended in 0.1 M borate buffer (pH 9.0) containing 10 mM EDTA at a concentration of 100 g/L as wet microbial cells. […] The resulting 0.2 mL of mixture was allowed to react at 25° C. for 120 minutes.

The test system of assay [4] is peptide-forming enzyme from Empedobacter brevis strain FERM BP-8113. Nature of the assay: Substrate specificity of enzyme (peptide production from carboxy and amine components). It is filed as biochemical. As to conditions: L-amino acid amide hydrochloride 100 mM as carboxy component, L-amino acid 150 mM, pH 9.0, 25° C., 3 hours.
The test system of assay [5] is peptide-forming enzyme from Sphingobacterium sp. strain FERM BP-8124. Nature of the assay: Production of L-alanyl-L-glutamine using SP-Sepharose HP enzyme fraction of Sphingobacterium sp. It is filed as biochemical. As to conditions: 10 μl SP-Sepharose HP fraction + 90 μl buffer with 111 mM L-alanine methyl ester hydrochloride, 222 mM L-glutamine, pH 9.0, 25° C., 120 minutes. Here is the method:
As a result, 73 mM of L-alanyl-L-glutamine was formed in the enzyme-added lot.

Assay [6] deals with enzyme derived from Sphingobacterium sp. strain FERM BP-8124. Nature of the assay: Substrate specificity of enzyme derived from Sphingobacterium sp. It is filed as biochemical. As to conditions: Table 15-4; carboxy component 100 mM, amine component 150 mM, 0.33 units enzyme, pH 9.0, 25° C., 1.5 hours.
Assay [7] has as its system peptide-forming enzyme from Empedobacter brevis strain FERM BP-8113. The experiment in a line: Production of L-alanyl-L-glutamine from L-alanine methyl ester and L-glutamine with the Mono S fraction enzyme. As to conditions: L-alanine methyl ester hydrochloride 100 mM, 18° C., 2 hours.

For `C[C@H](N)C(=O)N[C@@H](CCC(N)=O)C(=O)O` [L-Ala-L-Gln, L-alanyl-L-glutamine] (H-Ala-Gln-OH), the entries for the “Formed peptide” value in assay [1], in assay [2] and in assay [4] were 74.6 mM, 68.0 mM and 7.6 mM, respectively. Besides, in assay [3], the “concentration of L-alanyl-L-glutamine formed” value was 62 mM. The L-alanyl-L-glutamine formed in assay [5] was 73 mM. The “Produced peptide” value in assay [6] is on record as 0.3 mM. In addition, the “L-Ala-L-Gln” value is given as 68.2 mM in assay [7] (L-glutamine 100 mM); 72.1 mM in assay [7] (L-glutamine 110 mM); 73.3 mM in assay [7] (L-glutamine 120 mM); 75.1 mM in assay [7] (L-glutamine 130 mM); 75.5 mM in assay [7] (L-glutamine 150 mM); 82.0 mM in assay [7] (L-glutamine 200 mM).
